Measured values reported in ChEMBL document CHEMBL6182845, “Synthesis, screening and validation of cysteine-reactive fragments as chikungunya virus protease inhibitors” (Bioorg Med Chem Lett, 2025).
The source made the active and inactive calls. The rule behind the calls is not given here.

What was measured:
[1] = molecular target: Polyprotein P1234 (Chikungunya virus (strain S27-African prototype) (CHIKV)) (UniProt Q8JUX6); assay: Inhibition of CHIKV nsP2 protease at 1 mM by FRET assay relative to control
[2] = molecular target: Polyprotein P1234 (Chikungunya virus (strain S27-African prototype) (CHIKV)) (UniProt Q8JUX6); assay: Irreversible binding affinity to CHIKV nsP2 protease at 10 uM preincubated with compound followed by 100 fold dilution and subsequent addition of substrate by jump-dilution assay
[3] = molecular target: Polyprotein P1234 (Chikungunya virus (strain S27-African prototype) (CHIKV), UniProt Q8JUX6); assay: Inhibition of CHIKV nsP2 protease by FRET assay
[4] = molecular target: Polyprotein P1234 (Chikungunya virus (strain S27-African prototype) (CHIKV)) (UniProt Q8JUX6); assay: Reversible binding affinity to CHIKV nsP2 protease at 10 uM preincubated with compound followed by 100 fold dilution and subsequent addition of substrate by jump-dilution assay
[5] = molecular target: Replicase polyprotein 1ab (Severe acute respiratory syndrome coronavirus 2) (UniProt P0DTD1); assay: Inhibition of SARS-CoV-2 PLpro at 1 mM by FRET analysis
[6] = molecular target: Polyprotein P1234 (Sindbis virus) (UniProt P03317); assay: Inhibition of SINV nsP2pro at 1 mM by FRET analysis
[7] = molecular target: Polyprotein P1234 (Chikungunya virus (strain S27-African prototype) (CHIKV)) (UniProt Q8JUX6); assay: Binding affinity to CHIKV nsP2 protease assessed as covalent modification by mass spectrometry

Chain of Polyprotein P1234 (Chikungunya virus (strain S27-African prototype) (CHIKV)) (Q8JUX6 whole entry): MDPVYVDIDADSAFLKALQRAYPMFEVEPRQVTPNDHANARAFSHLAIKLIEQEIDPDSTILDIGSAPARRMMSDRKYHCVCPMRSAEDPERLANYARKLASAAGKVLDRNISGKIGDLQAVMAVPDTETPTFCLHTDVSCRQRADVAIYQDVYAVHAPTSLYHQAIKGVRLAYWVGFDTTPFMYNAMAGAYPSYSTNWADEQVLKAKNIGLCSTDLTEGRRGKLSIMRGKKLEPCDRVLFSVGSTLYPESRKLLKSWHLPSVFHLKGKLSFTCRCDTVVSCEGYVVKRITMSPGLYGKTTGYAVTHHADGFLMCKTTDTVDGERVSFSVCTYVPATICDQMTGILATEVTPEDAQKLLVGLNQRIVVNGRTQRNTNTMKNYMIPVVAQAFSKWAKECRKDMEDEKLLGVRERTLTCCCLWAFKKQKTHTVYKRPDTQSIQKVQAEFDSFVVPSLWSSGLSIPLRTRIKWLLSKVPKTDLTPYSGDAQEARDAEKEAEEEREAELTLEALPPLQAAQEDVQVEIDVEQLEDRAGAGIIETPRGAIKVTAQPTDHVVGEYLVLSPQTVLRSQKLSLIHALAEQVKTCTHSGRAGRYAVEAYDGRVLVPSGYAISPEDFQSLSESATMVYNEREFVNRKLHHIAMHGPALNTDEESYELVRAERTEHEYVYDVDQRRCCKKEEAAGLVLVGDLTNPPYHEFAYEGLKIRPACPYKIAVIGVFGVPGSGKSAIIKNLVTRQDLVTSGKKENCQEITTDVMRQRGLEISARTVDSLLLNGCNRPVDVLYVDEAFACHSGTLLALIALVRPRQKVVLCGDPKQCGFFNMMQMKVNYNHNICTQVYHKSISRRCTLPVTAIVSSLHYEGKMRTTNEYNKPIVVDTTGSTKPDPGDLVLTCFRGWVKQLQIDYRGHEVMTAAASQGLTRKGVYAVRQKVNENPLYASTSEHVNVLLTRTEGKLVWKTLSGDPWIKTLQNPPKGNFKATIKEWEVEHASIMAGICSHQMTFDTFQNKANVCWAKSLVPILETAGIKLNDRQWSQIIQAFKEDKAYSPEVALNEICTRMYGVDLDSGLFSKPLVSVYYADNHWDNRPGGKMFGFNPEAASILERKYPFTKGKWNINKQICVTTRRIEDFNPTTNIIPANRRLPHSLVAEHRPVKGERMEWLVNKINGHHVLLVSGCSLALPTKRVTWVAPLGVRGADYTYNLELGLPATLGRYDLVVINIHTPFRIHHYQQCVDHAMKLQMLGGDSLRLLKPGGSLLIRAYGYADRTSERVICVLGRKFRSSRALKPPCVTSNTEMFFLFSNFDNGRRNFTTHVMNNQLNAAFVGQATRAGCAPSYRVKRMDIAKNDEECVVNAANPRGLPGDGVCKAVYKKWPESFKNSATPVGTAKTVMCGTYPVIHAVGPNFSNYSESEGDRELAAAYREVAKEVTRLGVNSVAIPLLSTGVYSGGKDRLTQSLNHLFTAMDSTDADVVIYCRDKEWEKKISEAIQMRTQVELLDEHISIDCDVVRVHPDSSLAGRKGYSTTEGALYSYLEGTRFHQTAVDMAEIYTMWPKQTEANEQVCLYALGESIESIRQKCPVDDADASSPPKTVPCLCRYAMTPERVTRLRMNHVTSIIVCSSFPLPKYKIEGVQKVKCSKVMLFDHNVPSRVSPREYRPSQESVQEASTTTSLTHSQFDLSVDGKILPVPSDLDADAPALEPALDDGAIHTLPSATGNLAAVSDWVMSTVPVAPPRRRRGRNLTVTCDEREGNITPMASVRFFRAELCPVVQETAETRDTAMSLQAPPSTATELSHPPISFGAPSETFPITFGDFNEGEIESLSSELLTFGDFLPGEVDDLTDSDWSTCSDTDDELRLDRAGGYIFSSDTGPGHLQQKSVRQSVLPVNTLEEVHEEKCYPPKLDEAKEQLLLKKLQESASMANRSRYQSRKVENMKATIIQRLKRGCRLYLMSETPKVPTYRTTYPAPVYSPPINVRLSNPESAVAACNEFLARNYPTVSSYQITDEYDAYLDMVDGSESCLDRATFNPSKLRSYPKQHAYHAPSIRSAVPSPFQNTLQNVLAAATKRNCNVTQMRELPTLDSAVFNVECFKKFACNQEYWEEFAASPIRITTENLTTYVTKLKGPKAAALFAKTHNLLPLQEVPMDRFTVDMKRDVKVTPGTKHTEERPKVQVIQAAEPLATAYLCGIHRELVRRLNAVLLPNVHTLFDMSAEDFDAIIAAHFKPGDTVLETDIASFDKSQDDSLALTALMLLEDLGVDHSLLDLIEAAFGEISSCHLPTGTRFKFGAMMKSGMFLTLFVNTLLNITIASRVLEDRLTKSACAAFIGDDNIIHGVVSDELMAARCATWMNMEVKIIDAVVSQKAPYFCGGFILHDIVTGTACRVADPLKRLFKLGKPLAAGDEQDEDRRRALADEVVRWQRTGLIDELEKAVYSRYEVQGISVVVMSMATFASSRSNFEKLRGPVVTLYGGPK
Chain of Polyprotein P1234 (Sindbis virus) (P03317 whole entry): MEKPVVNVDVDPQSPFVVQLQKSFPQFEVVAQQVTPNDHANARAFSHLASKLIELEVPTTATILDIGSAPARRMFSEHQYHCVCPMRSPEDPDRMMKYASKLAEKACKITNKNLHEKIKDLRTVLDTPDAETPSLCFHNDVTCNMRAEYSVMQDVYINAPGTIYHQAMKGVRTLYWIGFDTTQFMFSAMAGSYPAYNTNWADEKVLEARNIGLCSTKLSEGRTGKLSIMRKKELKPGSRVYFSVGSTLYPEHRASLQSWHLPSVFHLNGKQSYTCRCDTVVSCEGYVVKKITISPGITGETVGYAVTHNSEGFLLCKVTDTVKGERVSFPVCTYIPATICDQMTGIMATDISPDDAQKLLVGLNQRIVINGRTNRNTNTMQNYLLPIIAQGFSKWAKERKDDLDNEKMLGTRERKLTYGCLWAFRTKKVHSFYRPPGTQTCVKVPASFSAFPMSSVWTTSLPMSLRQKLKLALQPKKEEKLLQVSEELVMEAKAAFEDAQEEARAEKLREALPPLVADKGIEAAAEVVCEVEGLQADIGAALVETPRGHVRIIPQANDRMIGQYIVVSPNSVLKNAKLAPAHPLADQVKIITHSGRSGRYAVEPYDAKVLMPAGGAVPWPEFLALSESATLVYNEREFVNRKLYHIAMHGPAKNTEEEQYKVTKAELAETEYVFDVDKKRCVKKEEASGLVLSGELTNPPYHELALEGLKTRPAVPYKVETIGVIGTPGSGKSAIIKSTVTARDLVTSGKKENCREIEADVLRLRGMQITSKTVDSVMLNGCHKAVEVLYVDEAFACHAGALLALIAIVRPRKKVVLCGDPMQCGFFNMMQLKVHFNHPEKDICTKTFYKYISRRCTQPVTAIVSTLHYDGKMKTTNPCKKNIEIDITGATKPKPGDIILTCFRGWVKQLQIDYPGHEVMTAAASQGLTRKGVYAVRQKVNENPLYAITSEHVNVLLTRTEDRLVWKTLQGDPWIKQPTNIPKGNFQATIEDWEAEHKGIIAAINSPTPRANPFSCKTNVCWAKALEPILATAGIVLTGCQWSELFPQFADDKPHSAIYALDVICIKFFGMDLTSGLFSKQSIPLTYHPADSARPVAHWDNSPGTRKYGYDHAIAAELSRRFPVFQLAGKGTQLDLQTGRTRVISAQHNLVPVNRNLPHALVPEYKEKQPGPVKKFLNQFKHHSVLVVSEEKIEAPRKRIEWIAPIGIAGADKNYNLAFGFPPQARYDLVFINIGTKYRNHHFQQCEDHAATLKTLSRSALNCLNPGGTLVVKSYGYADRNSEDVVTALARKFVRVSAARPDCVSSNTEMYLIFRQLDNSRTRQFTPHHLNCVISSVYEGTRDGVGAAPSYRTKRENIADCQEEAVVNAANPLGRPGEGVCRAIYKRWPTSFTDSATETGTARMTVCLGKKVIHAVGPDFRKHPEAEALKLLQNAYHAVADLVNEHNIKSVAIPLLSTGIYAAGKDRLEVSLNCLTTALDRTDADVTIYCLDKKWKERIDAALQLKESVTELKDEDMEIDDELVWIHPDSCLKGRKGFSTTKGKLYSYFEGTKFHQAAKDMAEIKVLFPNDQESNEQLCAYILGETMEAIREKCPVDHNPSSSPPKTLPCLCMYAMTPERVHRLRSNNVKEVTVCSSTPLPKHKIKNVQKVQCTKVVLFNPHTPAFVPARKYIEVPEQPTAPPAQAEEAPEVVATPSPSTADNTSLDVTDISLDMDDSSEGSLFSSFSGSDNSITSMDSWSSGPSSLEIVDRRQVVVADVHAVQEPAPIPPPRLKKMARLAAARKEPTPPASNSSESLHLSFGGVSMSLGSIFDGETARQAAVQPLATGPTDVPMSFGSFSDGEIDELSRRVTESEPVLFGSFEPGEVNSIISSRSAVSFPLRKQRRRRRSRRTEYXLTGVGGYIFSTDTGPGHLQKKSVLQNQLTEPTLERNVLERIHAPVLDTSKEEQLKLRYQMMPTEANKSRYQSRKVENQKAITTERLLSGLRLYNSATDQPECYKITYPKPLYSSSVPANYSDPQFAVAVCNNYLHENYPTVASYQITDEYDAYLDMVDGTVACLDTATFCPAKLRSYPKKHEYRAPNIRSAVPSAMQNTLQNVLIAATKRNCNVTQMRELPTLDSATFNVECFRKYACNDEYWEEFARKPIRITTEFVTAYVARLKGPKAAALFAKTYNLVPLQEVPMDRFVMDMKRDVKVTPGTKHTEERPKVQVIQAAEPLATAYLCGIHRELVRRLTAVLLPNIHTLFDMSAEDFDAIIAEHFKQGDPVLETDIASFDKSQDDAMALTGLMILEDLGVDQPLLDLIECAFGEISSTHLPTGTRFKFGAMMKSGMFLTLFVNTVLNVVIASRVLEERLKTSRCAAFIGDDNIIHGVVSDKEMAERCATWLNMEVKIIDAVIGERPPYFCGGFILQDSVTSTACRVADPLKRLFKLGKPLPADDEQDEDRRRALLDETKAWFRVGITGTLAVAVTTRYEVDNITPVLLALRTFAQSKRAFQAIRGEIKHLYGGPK

Structure (SMILES)	inhibition [1]	also measured
C=CC(=O)Nc1ccc(OC)c(O)c1	> 40%	–
C=CC(=O)Nc1cccc(C)c1C	< 40%	–
C=CC(=O)NCc1ccc(C(C)(C)C)cc1	< 40%	–
C=CC(=O)Nc1ccc([N+](=O)[O-])cc1	100%	–
C=CC(=O)NCCc1c[nH]c2ccccc12	> 40%	–
C=CC(=O)Nc1ccc(OC)c(OC(=O)C=C)c1	> 40%	–
C=CC(=O)NCc1ccc(Cl)cc1F	< 40%	–
C=CC(=O)NCc1cccc(C(F)(F)F)c1	> 40%	Activity [2]: Active; IC50 [3]: 1300 µM
C=CC(=O)Nc1c(CC(C)C)cccc1CC(C)C	< 40%	–
C=CC(=O)Nc1ccc(OC)cc1[N+](=O)[O-]	> 40%	–
C=CC(=O)Nc1ccccc1	< 40%	–
C=CC(=O)NCCc1ccccc1	< 40%	–
C=CC(=O)Nc1ccc(I)cc1	> 40%	–
C=CC(=O)NCCc1ccc(O)cc1	< 40%	–
CCC(=O)Nc1ccc(Br)cc1	< 40%	Activity [4]: Active
C=CC(=O)Nc1ccc(Br)cc1	> 40%	Activity [2]: Active; IC50 [3]: 1300 µM; inhibition [5]: inactive; inhibition [6]: Active; Inhibition Is Weaker Than Chikv Nsp2Pro; Activity [7]: 17%
C=CC(=O)NCc1ccccc1	< 40%	–
C=CC(=O)NCc1ccccc1Cl	–	inhibition [5]: inactive; inhibition [6]: Active; Inhibition Is Weaker Than Chikv Nsp2Pro

Structure (SMILES)	inhibition [1]	also measured
C=CC(=O)Nc1ccc(OC)cc1	< 40%	–
C=CC(=O)N[C@H](C)c1ccccc1	< 40%	–
C=CC(=O)N[C@@H]1CCCC[C@H]1NC(=O)C=C	< 40%	–
C=CC(=O)Nc1ccc(OC)c(OC)c1	< 40%	–
C=CC(=O)NCc1ccc(F)cc1	< 40%	–
C=CC(=O)NC1CCCCC1	< 40%	–
C=CC(=O)NCc1ccc2c(c1)OCO2	< 40%	–
C=CC(=O)N(C(C)C)C1CCCCC1	< 40%	–
C=CC(=O)NCc1ccc(Br)cc1F	< 40%	–
C=CC(=O)N1CCN(C(=O)OC(C)(C)C)CC1	< 40%	–
C=CC(=O)N[C@@H](C)c1ccccc1	< 40%	–
C=CC(=O)N[C@H]1CCc2ccccc21	< 40%	–
C=CC(=O)N(C)Cc1ccccc1	< 40%	–
C=CC(=O)NCc1ccc(OC)cc1	< 40%	–
C=CC(=O)NCc1ccc(Cl)cc1	< 40%	–
C=CC(=O)NCc1ccc(C(F)(F)F)cc1	< 40%	–
CCC(=O)NCc1cccc(C(F)(F)F)c1	< 40%	Activity [4]: Active
